# Laboratory results taken from patent EP1166644A1, “Enzymatic biodegradation of halogenated compounds” (priority 2000, dated 2002).
# System: baker's yeast
# Assay: Bioconversion (biodegradation) assay with baker's yeast
# Type: cell-based, Saccharomyces caerevisae (baker's yeast)
# Protocol: Biodegradation assays were carried out according to the following steps: • Step 1. Culture of microorganisms: The microorganisms studied were allowed to grow on a defined medium, in order to increase biomass and develop possible enzymatic activity. • Step 2. Bioconversion assay: The desired amount of 3-MCPD was added to the reactor, and samples were withdrawn at different reaction time to follow the kinetics of biodegradation. • Step 3. Centrifugation: Samples withdrawn from the mixture were centrifuged, the pellet was discarded and the supernatant was used for further treatment and analysis. • Step 4. Extraction of 3-MCPD: 3-MCPD was extracted from the supernatant using Extrelut columns or the Accelerated Solvent Extractor method, and partitioned into ethyl acetate. • Step 5. Preparation of samples for analysis: The organic phase was concentrated with a rotary evaporator, and transferred to a vial, containing an internal standard (3-monochloro-1-propanol (3-MCP) or 3-MCPD-d5). • Step 6. Analysis: Final detection and monitoring of substrate was accomplished by gas chromatography techniques (GC or GC-MS).
# Conditioning of baker's yeast: 60g active dry baker's yeast was added to 300 g distilled water under magnetic stirring for 20 min at room temperature. The yeast cream was then centrifuged at 5000 rpm for 15 min, at 4°C (Beckman Model J2-21M Centrifuge) and supernatant was discarded. The pellet was resuspended in equivalent amount (225ml) of distilled water. The obtained yeast cream solution (pH 5.8) was then used for bioconversion assays.
# Bioconversion assay: 150 g of the yeast cream solution obtained as described above was placed in a 200 ml reactor vessel equipped with an electrode and a magnetic stirrer (500 rpm). The flask was kept at 28°C using an oil bath equipped with a thermostat (Heidolph MR 3003), and pH was adjusted to the desired pH condition (pH 6.2, pH 7.0, or pH 8.2) with 2M NaOH solution.
# […] The pH was automatically maintained throughout the reaction with regular adjunction of 2M NaOH (Metrohm 691 pH-Meter, equipped with Metrohm Impulsomat 614 and Dosimat 665).
# Aliquots of 6 ml were withdrawn from the reaction mixture at different incubation times and centrifuged at 3000 rpm, during 4 min, at 25°C (Beckman Model TJ6 Centrifuge). The pellet was discarded, and the supernatant absorbed onto an Extrelut 3 column or hydromatrix column (placed in the Accelerated Solvent Extractor). 3-MCPD was then partitioned into ethyl acetate, volume was reduced to 2 ml by rotary evaporation, and transferred to a 10 ml graduated tube. 1ml of the internal standard (3-MCP or 3-MCPD-d5) was added to the vial and made up to volume with ethyl acetate. Finally, the extract was dried over anhydrous sodium sulfate, and analyzed for 3-MCPD content by gas chromatography (GC or GC-MS).
# The study of 3-MCPD biodegradation by baker's yeast was made by varying different parameters and measuring their influence on the yield and rate of 3-MCPD degradation. The effect of the following parameters were studied: • pH 6.2, 7.0 and 8.2 • presence of glucose in the reaction mixture • substrate stereospecificity: (R)-and (S)-enantiomers • substrate concentration: 800 ppb and 3000 ppm
# The results of the biodegradation assays are reported as a percentage of conversion of 3-MCPD as function of reaction time.
# Final conversion values were referred to 48h reaction time in order to compare the different biodegradation assays performed. Comparison of bioconversions after 48 h reaction time has been chosen in respect of the enzymatic nature of the reaction studied (many non-enzymatic reactions could occur in a longer time frame).
# A control vial (reaction medium with substrate, but without microorganism) was run alongside the reaction. This control permitted the subtraction of the non-enzymatic conversion of 3-MCPD under the experimental conditions tested. […]
# [1] = 800 ppb, pH 8.2, 28°C, without glucose
# [2] = 3000 ppm, pH 6.2, 28°C, without glucose
# [3] = 3000 ppm, pH 7.0, 28°C, without glucose
# [4] = 3000 ppm, pH 8.2, 28°C, without glucose
SMILES,"Biodegradation of 3-MCPD with baker's yeast, After 24 h [1] [%]","Biodegradation of 3-MCPD with baker's yeast, After 24 h (800 ppb, pH 8.2, 28°C, without glucose, listed as racemic 3-MCPD)","Biodegradation of 3-MCPD with baker's yeast, After 48 h [1] [%]","highest conversion (2000 ppm, pH 8.2, in the presence of glucose, after 24h reaction) [%]","Biodegradation of 3-MCPD with baker's yeast, After 24 h [2] [%]","Biodegradation of 3-MCPD with baker's yeast, After 48 h [2] [%]","Biodegradation of 3-MCPD with baker's yeast, After 24 h [3] [%]","Biodegradation of 3-MCPD with baker's yeast, After 48 h [3] [%]","Biodegradation of 3-MCPD with baker's yeast, After 24 h [4] [%]","Biodegradation of 3-MCPD with baker's yeast, After 48 h [4] [%]","Biodegradation of 3-MCPD with baker's yeast, After 48 h (3000 ppm, pH 8.2, 28°C, without glucose, listed as 3-MCPD) [%]","Biodegradation of 3-MCPD with baker's yeast, After 48 h (3000 ppm, pH 8.2, 28°C, without glucose, listed as racemic 3-MCPD)","Biodegradation of 3-MCPD with baker's yeast, After 24 h (3000 ppm, pH 8.2, + glucose) [%]","Biodegradation of 3-MCPD with baker's yeast, After 48 h (3000 ppm, pH 8.2, + glucose) [%]"
"OCC(O)CCl (racemic) [(R,S)-3-MCPD, 3-Monochloro-1,2-propanediol]",50,about 50%,70,60,8,12,20,35,26,45,45,about 50%,60,68
"OC[C@@H](O)CCl [(R)-3-MCPD, (R)-(-)-3-monochloro-1,2-propanediol]",,,,,,,,,20,60,,,,
"OC[C@H](O)CCl [(S)-3-MCPD, (S)-(+)-3-monochloro-1,2-propanediol]",,,,,,,,,55,85,,,,
